Drawing on patent US20240101576A1, “HETEROCYCLIC INHIBITORS OF EGFR AND/OR HER2, FOR USE IN THE TREATMENT OF CANCER” (Scorpion Therapeutics, Inc., priority 2020, published 2024), this text covers IC50 for 23 compounds.

A value given as a limit tells only on which side of the number the result lay.

Common to all, as to assay type: cell-based
Experiment [1] deals with T1, EGFR WT (Ba/F3 cells) (Homo sapiens, UniProt P00533).
T1 construct: expressed in transfected cells; host or cells: Ba/F3 (murine pro-B cells), retroviral transduction, puromycin selection, maintained with EGF
T1 sequence (P00533 25-1210): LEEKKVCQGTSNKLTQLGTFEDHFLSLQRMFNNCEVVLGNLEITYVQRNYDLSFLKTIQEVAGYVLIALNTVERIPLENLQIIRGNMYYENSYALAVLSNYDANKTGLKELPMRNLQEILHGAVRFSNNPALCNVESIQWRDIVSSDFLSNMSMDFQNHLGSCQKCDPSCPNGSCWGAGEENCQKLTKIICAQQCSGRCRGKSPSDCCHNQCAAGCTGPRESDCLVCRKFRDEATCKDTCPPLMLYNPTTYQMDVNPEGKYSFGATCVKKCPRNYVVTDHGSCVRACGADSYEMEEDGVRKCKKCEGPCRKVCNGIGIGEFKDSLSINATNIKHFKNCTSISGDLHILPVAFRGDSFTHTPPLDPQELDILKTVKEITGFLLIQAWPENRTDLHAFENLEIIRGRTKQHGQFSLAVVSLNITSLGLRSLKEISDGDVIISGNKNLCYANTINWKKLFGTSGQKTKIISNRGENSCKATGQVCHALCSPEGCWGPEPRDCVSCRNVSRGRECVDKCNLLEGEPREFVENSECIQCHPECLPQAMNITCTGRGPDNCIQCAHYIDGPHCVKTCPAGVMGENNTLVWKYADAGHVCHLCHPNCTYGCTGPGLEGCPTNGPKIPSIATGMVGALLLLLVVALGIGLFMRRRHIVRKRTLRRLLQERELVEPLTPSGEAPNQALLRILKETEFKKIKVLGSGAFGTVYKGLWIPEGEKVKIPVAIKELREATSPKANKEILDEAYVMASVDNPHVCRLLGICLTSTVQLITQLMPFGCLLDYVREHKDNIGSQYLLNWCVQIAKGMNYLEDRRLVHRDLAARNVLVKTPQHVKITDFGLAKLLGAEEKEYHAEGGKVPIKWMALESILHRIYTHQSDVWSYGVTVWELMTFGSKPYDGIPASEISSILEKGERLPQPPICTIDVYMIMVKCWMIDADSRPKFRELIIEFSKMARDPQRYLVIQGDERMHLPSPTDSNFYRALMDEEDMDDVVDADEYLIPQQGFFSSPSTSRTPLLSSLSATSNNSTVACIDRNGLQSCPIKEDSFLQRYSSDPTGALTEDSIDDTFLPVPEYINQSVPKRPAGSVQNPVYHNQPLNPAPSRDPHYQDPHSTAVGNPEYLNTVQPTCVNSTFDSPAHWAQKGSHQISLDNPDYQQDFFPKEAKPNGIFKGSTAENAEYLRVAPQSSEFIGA
Kind of experiment: Inhibitor activity on EGFR-dependent cell growth (CellTiter-Glo, 72 h), Ba/F3 EGFR WT. The conditions noted are these: read-out: BaF3 WT IC50. In a few lines:
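This growth assay used Ba/F3 cells that depend on wild-type EGFR and are kept in EGF without IL3. Compounds were made up as 10 mM DMSO stocks and diluted 3-fold over 10 points. 120 nL went onto 600 cells/well. After 72 hours, 40 μL CellTiter-Glo was added and luminescence read on EnVision after 30 min.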

The target in experiment [2] is T2, EGFR exon 20 ASV Ins V769_D770 (Ba/F3 cells) (Homo sapiens, UniProt P00533, INS769ASV).
T2 construct: expressed in transfected cells; host or cells: Ba/F3 (murine pro-B cells), retroviral transduction, puromycin selection, IL3-independent pool
T2 sequence (P00533 with tags, fused parts or gaps INS769ASV): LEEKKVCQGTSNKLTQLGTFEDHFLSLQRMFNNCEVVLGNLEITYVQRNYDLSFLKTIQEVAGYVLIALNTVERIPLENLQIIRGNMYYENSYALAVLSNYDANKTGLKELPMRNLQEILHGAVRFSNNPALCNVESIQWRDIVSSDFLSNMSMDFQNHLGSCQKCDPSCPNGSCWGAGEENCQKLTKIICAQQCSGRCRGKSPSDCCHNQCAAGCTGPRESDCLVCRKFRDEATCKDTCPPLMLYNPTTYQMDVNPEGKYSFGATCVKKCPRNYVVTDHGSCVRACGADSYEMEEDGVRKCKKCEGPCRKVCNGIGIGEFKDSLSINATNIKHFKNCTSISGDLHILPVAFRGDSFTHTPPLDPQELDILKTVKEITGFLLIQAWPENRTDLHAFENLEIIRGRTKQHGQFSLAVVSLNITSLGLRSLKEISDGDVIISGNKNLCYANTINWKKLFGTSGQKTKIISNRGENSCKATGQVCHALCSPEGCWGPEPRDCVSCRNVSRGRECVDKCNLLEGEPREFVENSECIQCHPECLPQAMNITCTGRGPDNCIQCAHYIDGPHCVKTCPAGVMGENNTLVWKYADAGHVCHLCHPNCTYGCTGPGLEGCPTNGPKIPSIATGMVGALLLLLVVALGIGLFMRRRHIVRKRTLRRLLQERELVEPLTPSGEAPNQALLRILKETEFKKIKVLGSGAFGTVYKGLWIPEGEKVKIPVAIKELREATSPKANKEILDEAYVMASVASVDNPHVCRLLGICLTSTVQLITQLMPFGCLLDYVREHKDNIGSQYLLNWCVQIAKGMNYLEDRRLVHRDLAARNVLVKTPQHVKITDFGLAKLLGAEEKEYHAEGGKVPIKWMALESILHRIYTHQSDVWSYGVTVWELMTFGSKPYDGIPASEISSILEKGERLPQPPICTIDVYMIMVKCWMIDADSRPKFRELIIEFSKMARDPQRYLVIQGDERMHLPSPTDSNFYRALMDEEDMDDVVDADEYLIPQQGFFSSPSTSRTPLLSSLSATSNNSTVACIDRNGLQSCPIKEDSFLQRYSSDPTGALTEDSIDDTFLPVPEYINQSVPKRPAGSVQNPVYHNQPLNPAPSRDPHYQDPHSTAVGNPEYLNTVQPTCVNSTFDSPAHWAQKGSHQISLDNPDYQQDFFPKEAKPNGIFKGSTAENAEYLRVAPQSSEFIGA
Kind of experiment: Inhibitor activity on EGFR-dependent cell growth (CellTiter-Glo, 72 h), Ba/F3 EGFR exon 20 ASV Ins. The conditions noted are these: read-out: BaF3 ASV IC50. In a few lines:
(§1)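 IC50s derive from a sigmoidal dose–response fit of CellTiter-Glo signal. The signal was normalised between […]-treated cells and cell-free medium. Ba/F3 mutant-EGFR cells, seeded at 400–800/well depending on the line, had 72 h of exposure to a 10-point, 3-fold compound series.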

The target in experiment [3] is T3, EGFR exon 20 SVD Ins D770_N771 (Ba/F3 cells) (Homo sapiens, UniProt P00533, INS770SVD).
T3 construct: expressed in transfected cells; host or cells: Ba/F3 (murine pro-B cells), retroviral transduction, puromycin selection, IL3-independent pool
T3 sequence (P00533 with tags, fused parts or gaps INS770SVD): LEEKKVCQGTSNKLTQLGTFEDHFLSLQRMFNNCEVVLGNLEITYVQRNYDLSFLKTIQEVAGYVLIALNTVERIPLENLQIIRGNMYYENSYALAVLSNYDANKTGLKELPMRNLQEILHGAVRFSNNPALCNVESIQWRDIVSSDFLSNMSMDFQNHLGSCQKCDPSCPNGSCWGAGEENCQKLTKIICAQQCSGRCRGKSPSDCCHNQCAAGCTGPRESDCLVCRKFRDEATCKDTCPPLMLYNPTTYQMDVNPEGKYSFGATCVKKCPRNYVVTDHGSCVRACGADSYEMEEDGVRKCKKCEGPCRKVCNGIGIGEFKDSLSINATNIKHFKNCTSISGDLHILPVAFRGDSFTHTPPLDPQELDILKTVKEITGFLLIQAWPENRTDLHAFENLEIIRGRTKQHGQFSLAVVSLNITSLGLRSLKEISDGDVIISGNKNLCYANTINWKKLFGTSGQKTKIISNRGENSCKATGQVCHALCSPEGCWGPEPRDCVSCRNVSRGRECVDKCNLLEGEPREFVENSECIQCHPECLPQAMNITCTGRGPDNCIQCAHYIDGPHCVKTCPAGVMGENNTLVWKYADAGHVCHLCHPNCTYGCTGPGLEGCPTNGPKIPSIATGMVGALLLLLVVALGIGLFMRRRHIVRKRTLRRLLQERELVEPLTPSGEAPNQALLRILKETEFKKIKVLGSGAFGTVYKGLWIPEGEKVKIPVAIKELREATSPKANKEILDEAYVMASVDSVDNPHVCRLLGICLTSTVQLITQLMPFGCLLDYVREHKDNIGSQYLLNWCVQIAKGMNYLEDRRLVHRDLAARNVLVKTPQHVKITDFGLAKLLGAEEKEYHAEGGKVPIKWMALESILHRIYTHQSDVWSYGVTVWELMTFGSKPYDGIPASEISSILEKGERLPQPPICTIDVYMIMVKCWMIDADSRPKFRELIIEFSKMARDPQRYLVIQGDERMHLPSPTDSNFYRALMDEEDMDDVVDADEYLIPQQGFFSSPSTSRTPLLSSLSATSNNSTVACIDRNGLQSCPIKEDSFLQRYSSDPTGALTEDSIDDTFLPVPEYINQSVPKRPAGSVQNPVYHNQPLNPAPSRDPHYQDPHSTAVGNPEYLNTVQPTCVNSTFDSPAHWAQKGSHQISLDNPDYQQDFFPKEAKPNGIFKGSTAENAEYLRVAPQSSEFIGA
Kind of experiment: Inhibitor activity on EGFR-dependent cell growth (CellTiter-Glo, 72 h), Ba/F3 EGFR exon 20 SVD Ins. The conditions noted are these: read-out: BaF3 SVD IC50. In a few lines: as §1

The target in experiment [4] is T4, EGFR exon 20 FQEA Ins A763_V764 (Ba/F3 cells) (Homo sapiens, UniProt P00533, INS763FQEA).
T4 construct: expressed in transfected cells; host or cells: Ba/F3 (murine pro-B cells), retroviral transduction, puromycin selection, IL3-independent pool
T4 sequence (P00533 with tags, fused parts or gaps INS763FQEA): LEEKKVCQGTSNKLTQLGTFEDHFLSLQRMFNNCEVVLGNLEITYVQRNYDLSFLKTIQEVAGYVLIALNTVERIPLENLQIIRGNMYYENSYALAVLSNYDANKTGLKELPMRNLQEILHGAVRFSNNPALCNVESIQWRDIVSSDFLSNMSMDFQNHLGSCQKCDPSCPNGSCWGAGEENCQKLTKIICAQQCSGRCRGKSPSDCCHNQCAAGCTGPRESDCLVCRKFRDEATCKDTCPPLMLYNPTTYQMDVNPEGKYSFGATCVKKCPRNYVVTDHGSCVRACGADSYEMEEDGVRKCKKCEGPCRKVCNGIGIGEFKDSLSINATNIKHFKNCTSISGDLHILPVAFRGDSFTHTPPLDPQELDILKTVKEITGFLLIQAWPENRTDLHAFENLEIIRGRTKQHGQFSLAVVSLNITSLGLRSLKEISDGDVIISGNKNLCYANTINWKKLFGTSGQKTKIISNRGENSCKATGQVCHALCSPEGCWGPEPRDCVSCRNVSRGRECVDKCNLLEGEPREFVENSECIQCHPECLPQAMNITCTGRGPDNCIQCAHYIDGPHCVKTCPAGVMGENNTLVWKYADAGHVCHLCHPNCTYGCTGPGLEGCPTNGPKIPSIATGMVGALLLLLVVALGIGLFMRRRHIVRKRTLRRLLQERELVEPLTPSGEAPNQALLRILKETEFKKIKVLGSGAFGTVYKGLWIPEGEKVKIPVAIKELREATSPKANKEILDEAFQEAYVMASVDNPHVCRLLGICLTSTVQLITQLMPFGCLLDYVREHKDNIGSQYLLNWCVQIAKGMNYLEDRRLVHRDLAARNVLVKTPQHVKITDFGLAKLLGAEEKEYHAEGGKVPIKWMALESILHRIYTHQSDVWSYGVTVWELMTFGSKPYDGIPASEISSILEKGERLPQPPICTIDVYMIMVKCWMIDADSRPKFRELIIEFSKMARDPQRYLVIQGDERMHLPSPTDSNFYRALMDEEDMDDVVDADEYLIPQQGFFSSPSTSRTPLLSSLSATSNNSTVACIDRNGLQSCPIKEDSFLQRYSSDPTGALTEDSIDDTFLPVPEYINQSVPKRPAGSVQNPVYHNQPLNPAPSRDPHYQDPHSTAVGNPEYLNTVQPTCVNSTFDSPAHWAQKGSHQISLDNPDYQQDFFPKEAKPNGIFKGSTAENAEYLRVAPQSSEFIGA
Kind of experiment: Inhibitor activity on EGFR-dependent cell growth (CellTiter-Glo, 72 h), Ba/F3 EGFR exon 20 FQEA Ins. The conditions noted are these: read-out: BaF3 FQEA IC50. In a few lines: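 Compounds, serially diluted 3-fold over 10 points in DMSO and added at 120 nL per well, act on Ba/F3 EGFR-mutant cells for 72 h. Seeding is 800 (exon 19del, FQEA), 600 (L858R/C797S) or 400 (L858R) cells/well. CTG luminescence is fitted with a four-parameter logistic curve to give IC50.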

In the case of `COc1c(Cl)cccc1Nc1c(-c2ccnc3ccc(OC(C)C)nc23)[nH]c2c1C(=O)NCC2` [compound 762, 3-[(3-chloro-2-methoxyphenyl)amino]-2-(6-isopropoxy-1,5-naphthyridin-4-yl)-1H,5H,6H,7H-pyrrolo[3,2-c]pyridin-4-one], the IC50 in experiment [1], in experiment [2], in experiment [3] and in experiment [4] was < 100 nM throughout.
`COc1ccc2ncc(F)c(-c3[nH]c4c(c3Nc3cccc(Cl)c3OC)C(=O)NCC4)c2n1` [compound 829, 3-[(3-chloro-2-methoxyphenyl)amino]-2-(3-fluoro-6-methoxy-1,5-naphthyridin-4-yl)-1H,5H,6H,7H-pyrrolo[3,2-c]pyridin-4-one]: the IC50 in experiment [1], in experiment [2], in experiment [3] and in experiment [4] was > 1000 nM throughout.
As for `COc1cnc2c(-c3[nH]c4c(c3Nc3cccc(Cl)c3OC)C(=O)NCC4)ccnc2c1` [compound 814], the IC50 in experiment [1], in experiment [2], in experiment [3] and in experiment [4] was < 100 nM in each case.
`COc1c(Cl)cccc1Nc1c(-c2ccnc3ccc(OC4CC4)nc23)[nH]c2c1C(=O)NC[C@@H]2C` [Compound 770, (S)-3-((3-chloro-2-methoxyphenyl)amino)-2-(6-cyclopropoxy-1,5-naphthyridin-4-yl)-7-methyl-1,5,6,7-tetrahydro-4H-pyrrolo[3,2-c]pyridin-4-one]: the 50% inhibitory concentration (IC50) in experiment [1], in experiment [2], in experiment [3] and in experiment [4] was < 100 nM in each case.
Consider `COc1c(F)cccc1Nc1c(-c2ccncc2F)[nH]c2c1C(=O)NCC2` [compound 418], for which the IC50 in experiment [1] is > 1000 nM; in experiment [2], 100 to 1000 nM; in experiment [3] it was 100 to 1000 nM; in experiment [4] it was 100 to 1000 nM.
`COc1c(F)cccc1Nc1c2c(n(C)c1-c1ccncc1F)CCNC2=O` [Compound 789, 3-[(3-fluoro-2-methoxyphenyl)amino]-2-(3-fluoropyridin-4-yl)-1-methyl-5H,6H,7H-pyrrolo[3,2-c]pyridin-4-one]: the IC50 in experiment [1], in experiment [2], in experiment [3] and in experiment [4] was > 1000 nM throughout.
Regarding `COc1ncc2nccc(-c3[nH]c4c(c3Nc3cccc(Cl)c3OC(F)(F)F)C(=O)NCC4)c2n1` [Compound 802, 3-[[3-chloro-2-(trifluoromethoxy)phenyl]amino]-2-[2-methoxypyrido[3,2-d]pyrimidin-8-yl]-1H,5H,6H,7H-pyrrolo[3,2-c]pyridin-4-one], the IC50 in experiment [1], in experiment [2], in experiment [3] and in experiment [4] was > 1000 nM throughout.
Take `COc1ncc2nccc(-c3[nH]c4c(c3Nc3cccc(F)c3CC(F)F)C(=O)NCC4)c2n1` [Compound 795, 3-{[2-(2,2-difluoroethyl)-3-fluorophenyl]amino}-2-{2-methoxypyrido[3,2-d]pyrimidin-8-yl}-1H,5H,6H,7H-pyrrolo[3,2-c]pyridin-4-one]: the IC50 in experiment [1] is > 1000 nM; in experiment [2], 100 to 1000 nM; in experiment [3], 100 to 1000 nM; in experiment [4] it was 100 to 1000 nM.
As to `COc1cc2nccc(-c3[nH]c4c(c3Nc3cccc(Cl)c3OC)C(=O)NCC4)c2nc1OCCN(C)C` [compound 501, 3-[(3-chloro-2-methoxyphenyl)amino]-2-{6-[2-(dimethylamino)ethoxy]-7-methoxy-1,5-naphthyridin-4-yl}-1H,5H,6H,7H-pyrrolo[3,2-c]pyridin-4-one], the IC50 is 100 to 1000 nM in experiment [1], < 100 nM in experiment [2], < 100 nM in experiment [3] and < 100 nM in experiment [4].
Turning to `COc1c(Cl)cccc1Nc1c(-c2ccncc2F)[nH]c2c1C(=O)NCC2CCF` (centres unmarked) [Compound 473, 3-[(3-chloro-2-methoxyphenyl)amino]-7-(2-fluoroethyl)-2-(3-fluoropyridin-4-yl)-1H,5H,6H,7H-pyrrolo[3,2-c]pyridin-4-one], the IC50 is > 1000 nM in experiment [1], 100 to 1000 nM in experiment [2], 100 to 1000 nM in experiment [3] and 100 to 1000 nM in experiment [4].
`COc1c(Cl)cccc1Nc1c(-c2ccnc3cnc(OCCCN4CCOCC4)nc23)[nH]c2c1C(=O)NCC2` [compound 505, 3-[(3-chloro-2-methoxyphenyl)amino]-2-{2-[3-(morpholin-4-yl)propoxy]pyrido[3,2-d]pyrimidin-8-yl}-1H,5H,6H,7H-pyrrolo[3,2-c]pyridin-4-one]: the IC50 in experiment [1] was > 1000 nM; in experiment [2], < 100 nM; in experiment [3] it was < 100 nM; in experiment [4], 100 to 1000 nM.
In the case of `COc1c(F)cccc1Nc1c(-c2ccnc(SC)n2)[nH]c2c1C(=O)NCC2` [compound 255], the IC50 in experiment [1], in experiment [2], in experiment [3] and in experiment [4] was 100 to 1000 nM in each case.
For `COc1c(Cl)cccc1Nc1c(-c2ccnc3ccc(OC4CCOCC4)nc23)[nH]c2c1C(=O)NCC2` [compound 740, 3-[(3-chloro-2-methoxyphenyl)amino]-2-[6-(oxan-4-yloxy)-1,5-naphthyridin-4-yl]-1H,5H,6H,7H-pyrrolo[3,2-c]pyridin-4-one], the IC50 in experiment [1], in experiment [2], in experiment [3] and in experiment [4] was < 100 nM each time.
With `COc1ccc2nccc(-c3[nH]c4c(c3Nc3cccc(Cl)c3OC)C(=O)NCC4)c2c1` [Compound 773, 3-[(3-chloro-2-methoxyphenyl)amino]-2-(6-methoxyquinolin-4-yl)-1H,5H,6H,7H-pyrrolo[3,2-c]pyridin-4-one], the IC50 in experiment [1], in experiment [2], in experiment [3] and in experiment [4] was > 1000 nM each time.
On to `COCC[C@H]1CNC(=O)c2c1[nH]c(-c1ccncn1)c2Nc1cccc(F)c1OC` [Compound 447b], for which the IC50 in experiment [1] is > 1000 nM; in experiment [2] it was 100 to 1000 nM; in experiment [3], 100 to 1000 nM; in experiment [4], 100 to 1000 nM.
For the compound `COc1c(Cl)cccc1Nc1c(-c2ccncc2F)[nH]c2c1C(=O)NC[C@@H]2CCN(C)C` [compound 475, (7S)-3-[(3-chloro-2-methoxyphenyl)amino]-7-[2-(dimethylamino)ethyl]-2-(3-fluoropyridin-4-yl)-1H,5H,6H,7H-pyrrolo[3,2-c]pyridin-4-one], the IC50 in experiment [1], in experiment [2], in experiment [3] and in experiment [4] was > 1000 nM in each case.
Regarding `CCc1c(Cl)cccc1Nc1c(-c2ccnc3cnc(OC)nc23)[nH]c2c1C(=O)NCC2` [Compound 800, 3-[(3-chloro-2-ethylphenyl)amino]-2-[2-methoxypyrido[3,2-d]pyrimidin-8-yl]-1H,5H,6H,7H-pyrrolo[3,2-c]pyridin-4-one], the 50% inhibitory concentration (IC50) in experiment [1] is 100 to 1000 nM; in experiment [2] it was < 100 nM; in experiment [3] it was < 100 nM; in experiment [4], 100 to 1000 nM.
Regarding `COCC[C@@H]1CNC(=O)c2c1[nH]c(-c1ccnc(C)n1)c2Nc1cccc(Cl)c1OC` [463a], the IC50 in experiment [1] is > 1000 nM; in experiment [2], 100 to 1000 nM; in experiment [3], < 100 nM; in experiment [4] it was 100 to 1000 nM.
In the case of `COCC[C@H]1CNC(=O)c2c(Nc3cccc(Cl)c3OC)c(-c3ccncn3)n(C)c21` (single isomer, unassigned) [Compound 797], the half-maximal inhibitory concentration (IC50) in experiment [1], in experiment [2], in experiment [3] and in experiment [4] was > 1000 nM each time.
Regarding `COc1c(Cl)cccc1Nc1c(-c2ccnc3cnc(OCCN4CCOCC4)nc23)[nH]c2c1C(=O)NCC2` [compound 506, 3-[(3-chloro-2-methoxyphenyl)amino]-2-{2-[2-(morpholin-4-yl)ethoxy]pyrido[3,2-d]pyrimidin-8-yl}-1H,5H,6H,7H-pyrrolo[3,2-c]pyridin-4-one], the IC50 in experiment [1] is > 1000 nM; in experiment [2], 100 to 1000 nM; in experiment [3], 100 to 1000 nM; in experiment [4] it was 100 to 1000 nM.
In the case of `COc1c(Cl)cccc1Nc1c(-c2ccncc2F)[nH]c2c1C(=O)NC[C@@]21CCN(C(C)=O)C1` [compound 492], the IC50 in experiment [1], in experiment [2], in experiment [3] and in experiment [4] was > 1000 nM throughout.
As for `COc1c(Cl)cccc1Nc1c(-c2ccncc2F)[nH]c2c1C(=O)NC[C@@H]2CC(N)=O` [Compound 474], the IC50 in experiment [1], in experiment [2], in experiment [3] and in experiment [4] was > 1000 nM throughout.
In the case of `COc1c(Cl)cccc1Nc1c(-c2ccncc2F)[nH]c2c1C(=O)NC[C@]21CCN(C(C)=O)C1` [compound 491], the concentration for half-maximal inhibition (IC50) in experiment [1], in experiment [2], in experiment [3] and in experiment [4] was > 1000 nM throughout.
